From US20200297862A1, “METHODS OF USING BISPECIFIC ANTIGEN-BINDING CONSTRUCTS TARGETING HER2” (Zymeworks Inc., priority 2016, published 2020)
Read-outs that look alike come from different tables or passages of the source.

What was measured:
[1] = test system: FaDu xenograft; type: in vivo; conditions: for median survival: study duration 59 days
Method: FaDu cells are derived from squamous cell cancer of the head and neck that is HER2 low, non-HER2 gene amplified, HER3+, EGFR+ and highly sensitive to Cisplatin at the MTD.
Tumor cell suspensions were implanted subcutaneously into athymic nude mice. […] Cisplatin was purchased and provided for the study by Charles River Laboratories (Morrisville, N.C.). Animals were treated according to Regimen 1 at Day 1, followed by Regimen 2 on subsequent days as noted in Table A4.

[2] = test system: HBCx-5 xenograft; experiment: Trastuzumab resistant breast cancer PDX, ADC (Example 20); type: in vivo, athymic nude mice; conditions: Day 43
Method: Dosing for each group was as follows:
A) IgG control was dosed intravenously with a loading dose of 15 mg/kg on study day 1 and maintenance doses of 10 mg/kg administered on study days 4, 8, 11, 15, 18, 22, and 25
Tumor volume was measured throughout the course of the study, and the mean tumor volume, T/C ratio, number of responders, complete response, and zero residual disease parameters were assessed at day 43.

[3] = biological target: recombinant human HER2 (Homo sapiens, UniProt P04626); experiment: SPR binding of captured antibody to HER2 at varying antibody capture levels
From the text: An SPR assay was used to evaluate the mechanism by which an exemplary anti-HER2 biparatopic antibody binds to HER2 ECD; specifically, to understand whether both paratopes of one biparatopic antibody molecule can bind to one HER2 ECD (Cis binding; 1:1 antibody to HER2 molecules) or if each paratope of one biparatopic antibody can bind two different HER2 ECDs (Trans binding; 1:2 antibody to HER2 molecules). […] The correlation between a reduced (slower) off-rate with increasing antibody capture levels (surface density) is an indication of Trans binding (i.e. one antibody molecule binding to two HER2 molecules.
Between 2000 and 4000 RU of anti-human Fc injected at concentration between 5 and 10 μg/ml was immobilized on a CMS chip using standard amine coupling. […] HER2 dilutions were analyzed in duplicate. Sensograms were fit globally to a 1: 1 Langmuir binding model. All experiments were conducted at 25° C.
The following experiment was conducted to compare HER2 binding kinetics (kd, off-rate) of exemplary anti-HER2 ECD2×ECD4 biparatopic antibodies when captured at varying surface densities by SPR.

[4] = test system: JIMT-1 cells; experiment: Cellular staining and location by confocal microscopy at 1, 3 and 16 h; type: cell-based, human; conditions: 200 nM antibody, 1 h, 3 h
Method: Cells were gently washed two times with warmed sterile PBS (500 ml/well). Cells were fixed with 250 ml of 10% formalin/PBS solution for 10 min at RT. The fixed cells were washed three times with PBS (500 μl/well), permeabilized with 250 μl/well of PBS containing 0.2% Triton X-100 for 5 min, and washed three times with 500 μl/well PBS. Cells were blocked with 500 μl/well of PBS+5% goat serum for 1 h at RT. […] Cells were washed three times with 500 μl/well of PBS and the coverslips containing fixed cells were then mounted on a slide using Prolong gold anti-fade with DAPI (Life Technologies; # P36931). 60× single images were acquired using Olympus FV1000 Confocal microscope.

[5] = Thermal stability by DSC; type: physicochemical
Method: DSC was performed in the MicroCal™ VP-Capillary DSC (GE Healthcare) using a purified protein sample (anti-HER2 biparatopic antibodies and anti-HER2 biparatopic-ADCs) adjusted to about 0.3 mg/ml in PBS. The sample was scanned from 20 to 100° C. at a 60° C./hr rate, with low feedback, 8 sec filter, 5 min preTstat, and 70 psi nitrogen pressure. The resulting thermogram was analyzed using Origin 7 software.
The DSC was measured before and after SEC purification.

[6] = Kaplan-Meier survival, log-rank test

N.N.[Cl][Pt][Cl] [cisplatin]
RECIST Scores CR(TV < 20 mm^3) ([1]; Day 25, animals/group): 0/15 | RECIST Scores PD(>20% baseline growth) ([1]; Day 25, animals/group): 15/15 | RECIST Scores PR(>30% baseline regression) ([1]; Day 25, animals/group): 0/15 | RECIST Scores SD(neither PD or PR) ([1]; Day 25, animals/group): 0/15 | Mean TV % Δ from base line ([1]; Day 25, regimens of Table A4): (782%) | Treatment/Control Ratio ([1]; Day 25, regimens of Table A4): 0.54 | Mean TV ([1]; Day 25, regimens of Table A4 (antibodies 15 then 10 mg/kg iv; cisplatin 2 mg/kg ip)): 1070 mm^3 | Log Rank Summary (survival) vs 6336 [1, 6]: n/s | Log Rank Summary (survival) vs 6908 [1, 6]: ★★★ (★★★ = P < 0.001) | Log Rank Summary (survival) vs 10000 [1, 6]: ★ (★ = P < 0.05) | Median Time to Progression ([1]; regimens of Table A4): 8.4 days | median survival [1]: 40 days | median survival ([1]; euthanized when tumor volume exceeded 2000 mm^3): 40 days

T-DM1
Complete response (>10% baseline regression) [2]: 1/7 | Mean TV % change from Baseline [2]: +65% | Mean TV (mm3) [2]: 193 mm3 | Responders (TV < 50% of control) [2]: 6/7 | T/C (IgG) ratio [2]: 0.21 | Zero residual disease (TV < 20 mm3) [2]: 0/7

v4182: monovalent anti-HER2 antibody, pertuzumab Fab on chain A; the OA of Table 11D
kd (1/s) over a range of antibody capture levels [3]: no change in kd values

v4184: bivalent anti-HER2 antibody, pertuzumab Fabs, heterodimeric Fc, pertuzumab analog
cellular staining and location [4]: pronounced plasma membrane staining at the 1, 3 and 16 h time points

v9996: monovalent anti-HER2 antibody, pertuzumab Fab with Y96A in VL and T30A/A49G/L69F in VH
DSC post-SEC ΔTm wrt WT (C) ([5]; after SEC purification, WT = v10013): −0.7 C | DSC pre-SEC ΔTm wrt WT (C) ([5]; before SEC purification, WT = v10013): −0.2 C | DSC post-SEC Tm (C) ([5]; one-armed antibody, after SEC purification): 77.2 C | DSC pre-SEC Tm (C) ([5]; one-armed antibody, before SEC purification): 77.2 C
